Where two headings read alike, the source gives them in different places.
Assays:
[1] = target: T1, MeCP2-TBL1 interaction (MeCP2-SmBiT / TBL1-LgBiT) (Mus musculus, UniProt Q9QXE7); test: MeCP2-TBL1 NanoLuc luciferase complementation assay (cell-free, extracts of transfected HEK293 cells); type: binding, human; conditions: for IC50: dose response 0.3–60 μM, triplicate, 30 min, luminescence normalized to DMSO, read-out: IC50, inhibition of MeCP2-TBL1 luminescence signal; for Inh (MeCP2-TBL1): ApexBio FDA-approved Drug Library screen, 20 µM
T1 construct: expressed in transfected cells; crude lysate used as a cell-free assay
T1 sequence (Q9QXE7 166-527): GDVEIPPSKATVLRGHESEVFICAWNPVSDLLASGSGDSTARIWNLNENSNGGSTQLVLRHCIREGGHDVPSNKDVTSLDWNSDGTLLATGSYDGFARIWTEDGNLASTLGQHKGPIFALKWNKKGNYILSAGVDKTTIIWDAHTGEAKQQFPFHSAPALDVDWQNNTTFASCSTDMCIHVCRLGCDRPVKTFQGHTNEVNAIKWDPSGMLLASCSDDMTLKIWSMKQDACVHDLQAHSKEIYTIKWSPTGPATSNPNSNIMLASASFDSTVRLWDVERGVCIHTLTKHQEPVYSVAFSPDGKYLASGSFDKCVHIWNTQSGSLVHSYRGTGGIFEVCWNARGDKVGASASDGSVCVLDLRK
Method in brief: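 Cell-free split NanoLuc: lysate of HEK293 cells co-expressing the MeCP2 C-terminal half-SmBiT and TBL1 WD domain-LgBiT, mixed 1:1 with furimazine. After 30 min at room temperature, luminescence was plate-median normalized.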

TBLR1 = target: T2, TBLR1 (Homo sapiens, UniProt Q9BZK7); test: MeCP2 peptide SPOT array probed with recombinant HIS6-tagged TBLR1; type: binding; conditions: recombinant HIS6-tagged TBLR1 2 µM
T2 sequence (Q9BZK7 1-514): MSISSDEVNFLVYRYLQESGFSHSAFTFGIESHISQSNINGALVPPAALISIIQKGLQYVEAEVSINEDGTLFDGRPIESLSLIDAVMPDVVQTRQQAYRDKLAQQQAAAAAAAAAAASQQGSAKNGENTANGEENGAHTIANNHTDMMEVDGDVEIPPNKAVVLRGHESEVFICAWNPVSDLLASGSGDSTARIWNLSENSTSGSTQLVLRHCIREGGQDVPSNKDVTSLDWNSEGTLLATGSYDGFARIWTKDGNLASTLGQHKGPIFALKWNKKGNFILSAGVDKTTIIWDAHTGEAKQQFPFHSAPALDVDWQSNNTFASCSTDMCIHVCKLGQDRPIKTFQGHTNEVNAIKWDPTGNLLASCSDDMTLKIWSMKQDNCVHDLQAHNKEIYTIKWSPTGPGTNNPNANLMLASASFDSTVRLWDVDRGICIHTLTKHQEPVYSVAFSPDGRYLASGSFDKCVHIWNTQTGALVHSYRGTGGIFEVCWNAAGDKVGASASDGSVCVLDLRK
Method: The Z-factor is a statistic frequently used to assess the suitability of an assay for high throughput screening. We calculated the Z-factor of our assay in 384-well plate format using a short 12 residue MeCP2 NID derived-peptide variant as positive control and DMSO as negative control.
Western blotting was performed using antibodies against NanoLuc (Promega), MeCP2 (Sigma, M6818) and Sin3A (Abcam, Ab3479). […] The biotin at the N-terminus of these peptides was not relevant to the experiments in this work. […] The array membrane was incubated with recombinant HIS6‐tagged TBLR1 (2 µM) and immunodetection was performed with anti-HIS antibody (Sigma, H1029). Uniform synthesis efficiency across the array was ascertained by UV absorption. […] Note the shorter N-terminus and longer C-terminus of this peptide compared to the sequences used on the SPOT array. UMT026-2 was used at 50 µM when calculating the Z-factor[39].
The wild-type amino acids at these positions (Pro, Ile, Lys and Lys) make directs contacts with TBLR1. Arrows denote spots with increased binding and red dots indicate the wild-type amino acid.

[2] = tested on: PRKACA-PRKAR2A interaction (SmBiT-PRKACA / LgBiT-PRKAR2A), protein kinase A; test: PKA-based NanoLuc complementation control assay (counter-screen); type: binding, human; set-up: Inh (PKA): unit not given here; conditions: 20 µM; for Inh (PKA): ApexBio FDA-approved Drug Library screen
Excerpt: To distinguish such false positives from genuine inhibitors of the interaction between MeCP2 and TBL1/TBLR1, a control screen is essential, utilising the same NanoLuc SmBiT and LgBiT fragments, but with an unrelated protein interaction pair. The interaction between PRKACA and PRKAR2A, which are the catalytic and regulatory subunits of human protein kinase A (PKA) respectively, has previously been measured using a NanoLuc complementation assay. We tested this pair of interacting proteins for activity in a NanoLuc complementation assay under our conditions. […] We therefore selected the PKA-based NanoLuc complementation as a suitable control assay. The effects of the four compounds identified from the Asinex library were assessed in the control PKA-based NanoLuc assay.
The AgeI-NotI restriction fragment (encoding EGFP) was then replaced with a codon optimized SmBiT sequence to yield the MeCP2-SmBiT expression plasmid. […]
In the screens described here, the lysate obtained from a single 15 cm plate was used for 2.5 384-well assay plates. […] After 30 min incubation at room temperature, luminescence was measured on a Tecan M1000 multi-mode plate reader. Raw luminescence reads from each well on each plate were normalized to the median luminescence signal for that plate. […] After plate normalization the robust SSMD (SSMD*) was calculated as described elsewhere. […]
Assays were performed as described above except instead of a single concentration, a threefold serial dilution ranging from 60 to 0.03 μM was tested in triplicate for each of the compounds. Half-maximal inhibitory concentrations were calculated using global nonlinear regression by fitting the response data sets of all compounds simultaneously with a four-parameter logistic curve of log inhibitor concentration versus normalized luminescence using GraphPad Prism. […] The luminescence signal of each compound concentration was normalized by dividing the luminescence signal of the DMSO control.

[3] = tested on: PRKACA-PRKAR2A interaction (SmBiT-PRKACA / LgBiT-PRKAR2A), protein kinase A; set-up: NanoLuc complementation counter-screen in cell extract, PRKACA with PRKAR2A, loss of luminescence, detects NanoLuc interference; conditions: counter-screen for NanoLuc interference; 0.5 h, 20 µM; inhibitor
Method: In the screens described here, the lysate obtained from a single 15 cm plate was used for 2.5 384-well assay plates. NanoLuc substrate (furimazine) (Promega, N1110) was diluted 1000-fold in passive lysis buffer (Promega, E1941) and added 1:1 to the lysate. Screening libraries were purchased from Asinex[40] and ApexBio (FDA-approved Drug Library, L1021). Compounds were dispensed using an Echo acoustic dispenser and tested at a final concentration of 20 µM in a total assay volume of 20 μl in 384-well plate format. DMSO was added to each well at a final concentration of 0.2% (v/v) and wells containing only DMSO were used as negative control. After 30 min incubation at room temperature, luminescence was measured on a Tecan M1000 multi-mode plate reader. Raw luminescence reads from each well on each plate were normalized to the median luminescence signal for that plate. […] After plate normalization the robust SSMD (SSMD*) was calculated as described elsewhere. […] The interaction between PRKACA and PRKAR2A, which are the catalytic and regulatory subunits of human protein kinase A (PKA) respectively, has previously been measured using a NanoLuc complementation assay. […] The effects of the four compounds identified from the Asinex library were assessed in the control PKA-based NanoLuc assay. […]

| Compound | IC50 [1] [µM] | Inh (MeCP2-TBL1) [1] | Inh (PKA) [2] | other results |
| --- | --- | --- | --- | --- |
| Ac-ETVLPIYKRKTR-NH2 [K304Y mutant peptide] | ~40 | – | – | TBL1/TBLR1 binding on peptide SPOT array relative to wild type (TBLR1): stronger TBL1/TBLR1 binder |
| Oc1ccc(Nc2nc(-c3ccc(Cl)cc3)cs2)cc1 [SKI II, reference compound] | – | 10.5772 | 14.6502 | – |
| C[C@H]1CC[C@H]2[C@H](O1)c1cc(OCC(=O)NCc3ccccc3)ccc1OC2(C)C [BDG 34039627] | 18 | – | – | extent of MeCP2-TBL1 inhibition reached within the tested concentration range ([1]; 0.3–60 μM): able to return the luminesce signal back to baseline; separation between MeCP2-TBL1 inhibition and inhibition of the PKA control in dose response ([1]; 0.3–60 μM, PKA-based assay run in parallel): clear separation; effect on luminescence in PKA control assay ([2]; n = 3): did not cause a reduction in luminescence |
| C=C1C(=O)O[C@@H]2[C@H]3O[C@]3(C)CC/C=C(\C)CC[C@@H]12 [UM0142841:01, Parthenolide] | – | – | – | Inh (PKA) [3]: 0.7412% |
| COc1ccc(/C(Cl)=C(/C=O)c2ccc(OC)cc2)cc1 [Windorphen, reference compound] | – | 12.6933 | 33.916 | – |
